Experimental data from patent publication US7094796B2, “Coupling product between tryptamine and an alpha-amino acid, process for its preparation as well as its application in the neurocosmetic field” (Exsymol S.A.M., priority 2002, dated 2006).

What was measured:
[1] = system: immune monocyte cells, the THP-1 line; assay: Test 4: stimulation of the neuro immuno-cutaneous system (IL-1β produced by THP-1 monocytes given supernatants of treated PC 12 cells); type: cell-based; conditions: supernatant added to THP-1, non treated supernatant control 40
Experimental: Test 4: stimulation of the neuro immuno-cutaneous system with the alpha-L-glutamyltryptamine, L-methionyltryptamine or L-tryptophantryptamine.
PC 12 cells are differentiated according to a special protocol to avoid artefacts. After a brief deprivation of growth and differentiation factors, PC 12 are incubated in different concentrations of pseudodipeptides, successively the alpha-L-glutamyltryptamine (Glu-Tryp), L-methionyltryptamine (Met-Tryp) and L-tryptophantryptamine (Trp-Tryp).
After a five days-incubation, the cellular supernatants containing neuromediators and miscellaneous secretions are sampled then introduced in the culture of immune monocyte cells, the THP-1 line.
The effect on the neuro immuno-cutaneous system is observed by measuring the rate of IL-1β interleukines produced by the monocyte cells in response to the addition of supernatants coming from the culture of PC 12 cells.
The results are compared to two controls: the first one with immune cells without supernatant, the second one containing immune cells with supernatant but non treated.

[2] = system: PC 12 cells; assay: Test 2: slowdown of the neurodegeneration process of PC 12 submitted to a deprivation of serum (LDH release); type: cell-based, murine; conditions: serum deprivation of nine days, average of six measures
Source text: (§1) The cell model chosen by the applicant in all its in vitro experimentations was a pheochromocytomal cell line with murine origin, called “PC 12” and commonly accepted for neurobiological and neurochemical studies on nervous cells (Greene L. A. and al., Proc. Natl. Acad. Sci. USA (1976), vol.73, pp.2424–2428), in particular on peripheral neurones which innervate skin (Keilbaugh S. A., Biochem. Pharm. (1997), vol.53, pp.1485–1492).
(§2) The PC 12 line was used after differentiation according to a method described in the literature (Greene L. A. et al. in Culturing Nerve Cells (1991), MIT Press, Cambridge, Mass., pp.207–225).
Test 2: anti-aging effect of the alpha-L-glutamyltryptamine, L-methionyltryptamine and L-tryptophantryptamine with the slowdown of the neurodegeneration process of PC 12 submitted to a deprivation of serum.
A deprivation of serum is applied to PC 12 cells in order to imitate the aging effects. The neurodegeneration process is followed, in the absence then in the presence of active ingredient, successively the alpha-L-glutamyltryptamine (Glu-Tryp), L-methionyltryptamine (Met-Tryp) and L-tryptophantryptamine (Trp-Tryp), by a kinetic measure of the release in the culture medium of lactico-dehydrogenase enzyme (LDH).
The results are expressed in relative survival rate given by the LDH activity ratio according to the following equation: […]
The values listed in the tables hereafter are average values obtained from six measures after a serum deprivation of nine days.

[3] = system: PC 12 cells; assay: Test 1: cytoprotecting effect on PC 12 cells submitted to a cytotoxic UV-B stress (LDH activity in culture medium); type: cell-based, murine; conditions: UV-B 285 nm, 500 mJ/cm^2, average of six measures
Source text: as §1, §2
Test 1: cytoprotecting effect of the alpha-L-glutamyltryptamine, L-methionyltryptamine and L-tryptophantryptamine on PC 12 cells submitted to a UV-B stress. Comparison with a reference antioxidant. A cytotoxic UV-B stress is applied on the nervous cell model (285 nm±5; 500 mJ/cm^2), in the absence then in the presence of active ingredient, successively the alpha-L-glutamyltryptamine (Glu-Tryp), L-methionyltryptamine (Met-Tryp) and L-tryptophantryptamine (Trp-Tryp).
The cell death is then evaluated by the measure of lactico-dehydrogenase activity (LDH) in the culture medium. This activity is proportional to the cell lysis which follows the cell death.
The results are expressed in % of protection and are given by the ratio of LDH activity according to the following equation: […]
The results are compared to the ones obtained with a reference antioxidant which is vitamin E (vit.E).
Validity of the test is checked by the measure of LDH activity in the culture medium of non stressed cells (negative check). Values listed in the tables hereafter are average values obtained from six measures.

[4] = system: PC 12 cells; assay: Test 3: anti-inflammatory effect on PC 12 cells submitted to a UV-B pro-inflammatory stress (IL-6 production); type: cell-based, murine; conditions: UV-B 285 nm, 150 mJ/cm^2, non treated irradiated control 400, non irradiated control 0
Source text: as §1, §2
Test 3: anti-inflammatory effect of the alpha-L-glutamyltryptamine, L-methionyltryptamine and L-tryptophantryptamine on PC 12 cells submitted to a pro-inflammatory stress. Comparison with two controls (PC 12): the first one is non stressed, the second one is stressed but non treated
A UV-B pro-inflammatory stress is applied on PC 12 cells (285 nm±5; 150 mJ/cm^2), in the absence then in the presence of active ingredient, successively the alpha-L-glutamyltryptamine (Glu-Tryp), L-methionyltryptamine (Met-Tryp) and L-tryptophantryptamine (Trp-Tryp).
The neurogenic inflammatory response is evaluated by the measure of the rate of pro-inflammatory interleukine-6 (IL-6) which are produced by the PC 12 cells.

[5] = 0.05 mM on PC 12, five days-incubation
[6] = 0.1 mM on PC 12, five days-incubation

Molecule	produced IL-1β rate [1, 5] [pg/mL]	produced IL-1β rate [1, 6] [pg/mL]	produced IL-1β rate ([1]; 0.48 mM on PC 12, five days-incubation) [pg/mL]	improvement of the survival time (%) ([2]; 0.1 mM)	improvement of the survival time (%) ([2]; 0.48 mM)	improvement of the survival time (%) ([2]; 0.85 mM)	% of protection ([3]; 0.05 mM) [%]	% of protection ([3]; 0.1 mM) [%]	% of protection ([3]; 0.48 mM) [%]	% of protection ([3]; 0.85 mM) [%]	% of protection ([3]; 1.91 mM) [%]	produced IL-6 rate ([4]; 0.1 mM) [pg/mL]	produced IL-6 rate ([4]; 0.48 mM) [pg/mL]	produced IL-6 rate ([4]; 0.85 mM) [pg/mL]	produced IL-1β rate ([1]; 0.45 mM on PC 12, five days-incubation) [pg/mL]	improvement of the survival time (%) ([2]; 0.45 mM)	% of protection ([3]; 0.45 mM) [%]	% of protection ([3]; 1.80 mM) [%]	produced IL-6 rate ([4]; 0.45 mM) [pg/mL]	% of protection ([3]; 2 mM) [%]
CSCC[C@H](N)C(=O)NCCc1c[nH]c2ccccc12 [Met-Tryp, L-methionyltryptamine]	42	55	85	+12%	+15%	+28%	20	32	42	53	65	290	210	85	–	–	–	–	–	–
N[C@@H](Cc1c[nH]c2ccccc12)C(=O)NCCc1c[nH]c2ccccc12 [Trp-Tryp, L-tryptophantryptamine]	44	60	–	+17%	–	+30%	22	35	–	58	–	305	–	100	92	+20%	45	66	210	–
vitamin E [Vit. E, reference compound]	–	–	–	–	–	–	–	–	–	–	–	–	–	–	–	–	–	–	–	34
